The results in this text go back to patent US9681664B2, “Macrocyclic picolinamides as fungicides” (Dow Agrosciences LLC, priority 2012, dated 2017).

Read-outs that look alike come from different tables or passages of the source. Bounds are passed on as bounds.

Experiment [1] deals with Mycosphaerella graminicola; Anamorph: Septoria tritici. Put plainly: Leaf blotch of wheat (SEPTTR) disease control on wheat seedlings. Type of experiment: in vivo. As to conditions: for pest or weed control at 100 ppm / pest or weed control at 121.5 g/ha: Zymoseptoria tritici; for pest or weed control at 121.5 g/ha: low volume application, 121.5 g/H. As for the experimental part:
Technical grades of materials were dissolved in acetone, which were then mixed with nine volumes of water containing 110 ppm Triton X-100. The fungicide solutions were applied onto wheat seedlings using an automated booth sprayer to run-off. All sprayed plants were allowed to air dry prior to further handling. All fungicides were evaluated using the aforementioned method for their activity vs. all target diseases. Wheat leaf blotch and brown rust activity were also evaluated using track spray applications, in which case the fungicides were formulated as EC formulations, containing 0.1% Trycol 5941 in the spray solutions. Wheat plants (variety Yuma) were grown from seed in a greenhouse in 50% mineral soil/50% soil-less Metro mix until the first leaf was fully emerged, with 7-10 seedlings per pot. These plants were inoculated with an aqueous spore suspension of Septoria tritici either prior to or after fungicide treatments. After inoculation the plants were kept in 100% relative humidity (one day in a dark dew chamber followed by two to three days in a lighted dew chamber at 20° C.) to permit spores to germinate and infect the leaf. The plants were then transferred to a greenhouse set at 20° C. for disease to develop. When disease symptoms were fully expressed on the 1st leaves of untreated plants, infection levels were assessed on a scale of 0 to 100 percent disease severity. Percent disease control was calculated using the ratio of disease severity on treated plants relative to untreated plants.

In experiment [2] the test system is Puccinia triticina; Synonym: Puccinia recondite f. sp. tritici. The experiment is described as follows: Wheat brown rust (PUCCRT) disease control on wheat seedlings. Type of experiment: in vivo. The following applies: for pest or weed control at 100 ppm / pest or weed control at 121.5 g/ha: Puccinia triticina; for pest or weed control at 121.5 g/ha: low volume application, 121.5 g/H. As for the experimental part: Technical grades of materials were dissolved in acetone, which were then mixed with nine volumes of water containing 110 ppm Triton X-100. The fungicide solutions were applied onto wheat seedlings using an automated booth sprayer to run-off. All sprayed plants were allowed to air dry prior to further handling. All fungicides were evaluated using the aforementioned method for their activity vs. all target diseases. Wheat leaf blotch and brown rust activity were also evaluated using track spray applications, in which case the fungicides were formulated as EC formulations, containing 0.1% Trycol 5941 in the spray solutions. Wheat plants (variety Yuma) were grown from seed in a greenhouse in 50% mineral soil/50% soil-less Metro mix until the first leaf was fully emerged, with 7-10 seedlings per pot. These plants were inoculated with an aqueous spore suspension of Puccinia triticina either prior to or after fungicide treatments. After inoculation the plants were kept in a dark dew room at 22° C. with 100% relative humidity overnight to permit spores to germinate and infect the leaf. The plants were then transferred to a greenhouse set at 24° C. for disease to develop. Fungicide formulation, application and disease assessment followed the procedures as described in the Example A.

Setting [3] is: 24 h, High volume application, 100 ppm, 1 Day Protectant, read-out: SEPTTR 1DP disease control.
Setting [4] is: 72 h, High volume application, 100 ppm, 3 Day Curative, read-out: SEPTTR 3DC disease control.
The mark [5] stands for this setting: 24 h, High volume application, 100 ppm, 1 Day Protectant, read-out: PUCCRT 1DP disease control.
Where [6] appears, read: 72 h, High volume application, 100 ppm, 3 Day Curative, read-out: PUCCRT 3DC disease control.
Setting [7] is: 24 h, Wheat Leaf Blotch, 1 Day Protectant, high volume application, 100 ppm, read-out: Disease Control SEPTTR 1 DP 100 ppm.
Where [8] appears, read: 24 h, Wheat Leaf Blotch, 1 Day Protectant, read-out: Disease Control SEPTTR 1 DP 121.5 g/H.
The mark [9] stands for this setting: 72 h, Wheat Leaf Blotch, 3 Day Curative, high volume application, 100 ppm, read-out: Disease Control SEPTTR 3 DC 100 ppm.
Where [10] appears, read: 72 h, Wheat Leaf Blotch, 3 Day Curative, read-out: Disease Control SEPTTR 3 DC 121.5 g/H.
[11] abbreviates: 24 h, Wheat Brown Rust, 1 Day Protectant, high volume application, 100 ppm, read-out: Disease Control PUCCRT 1 DP 100 ppm.
Setting [12] is: 24 h, Wheat Brown Rust, 1 Day Protectant, read-out: Disease Control PUCCRT 1 DP 121.5 g/H.
Where [13] appears, read: 72 h, Wheat Brown Rust, 3 Day Curative, high volume application, 100 ppm, read-out: Disease Control PUCCRT 3 DC 100 ppm.
[14] abbreviates: 72 h, Wheat Brown Rust, 3 Day Curative, read-out: Disease Control PUCCRT 3 DC 121.5 g/H.
The mark [15] stands for this setting: High volume application, 100 ppm, 1 Day Protectant.
The mark [16] stands for this setting: High volume application, 100 ppm, 3 Day Curative.

Regarding `COc1ccnc(C(=O)N[C@H]2CCC[C@H](OCC(C)C)[C@@H](OCCCC(F)(F)F)[C@H](C)OC2=O)c1OC(C)=O` [F216], the pest or weed control at 100 ppm in experiment [1] (setting [3]), in experiment [1] (setting [4]), in experiment [2] (setting [5]) and in experiment [2] (setting [6]) was 80 to 100% in each case.

On to `COc1ccnc(C(=O)N[C@H]2CCC[C@H](OCC(C)C)[C@@H](OC(=O)C3CC3)[C@H](C)OC2=O)c1OCOC(=O)C(C)C` [F52], for which the pest or weed control at 100 ppm in experiment [1] (setting [3]), in experiment [1] (setting [4]), in experiment [2] (setting [5]) and in experiment [2] (setting [6]) was 80 to 100% in each case.

As to `COc1ccc(O[C@H]2[C@H](C)OC(=O)[C@@H](NC(=O)c3nccc(OC)c3O)CCC[C@@H]2Oc2ccc(OC)cc2)cc1` [F64], the pest or weed control at 100 ppm in experiment [1] (setting [3]) is 0 to 80%; in experiment [1] (setting [4]) it was 0 to 80%; in experiment [2] (setting [5]) it was 0 to 80%; in experiment [2] (setting [6]), < 0%.

As to `COc1ccnc(C(=O)N[C@H]2CCC[C@H](Oc3ccccc3)[C@@H](OC/C=C/C(F)(F)F)[C@H](C)OC2=O)c1O` [F104], the pest or weed control at 100 ppm in experiment [1] (setting [3]) is 80 to 100%; in experiment [1] (setting [4]), < 0%; in experiment [2] (setting [5]) it was 80 to 100%; in experiment [2] (setting [6]) it was < 0%.

On to `COc1ccc(O[C@H]2[C@H](C)OC(=O)[C@@H](NC(=O)c3nccc(OC)c3OCOC(=O)C(C)C)CCC[C@@H]2Oc2ccc(OC)cc2)cc1` [F67], for which the pest or weed control at 100 ppm in experiment [1] (setting [3]) was 80 to 100%; in experiment [1] (setting [4]), 0 to 80%; in experiment [2] (setting [5]), 80 to 100%; in experiment [2] (setting [6]), 80 to 100%.

In the case of `COc1ccnc(C(=O)N[C@H]2CCC[C@H](OC(=O)C3CCCC3)[C@@H](OC(=O)C3CCCC3)[C@H](C)OC2=O)c1OCOC(C)=O` [F88], the pest or weed control at 100 ppm in experiment [1] (setting [3]), in experiment [1] (setting [4]), in experiment [2] (setting [5]) and in experiment [2] (setting [6]) was 80 to 100% throughout.

For `COc1ccnc(C(=O)N[C@H]2CCC[C@H](OC3CCCC3)[C@@H](OCCCC(F)(F)F)[C@H](C)OC2=O)c1OCOC(=O)C(C)C` [F126], the pest or weed control at 100 ppm in experiment [1] (setting [3]), in experiment [1] (setting [4]), in experiment [2] (setting [5]) and in experiment [2] (setting [6]) was 80 to 100% in each case.

Consider `COc1ccnc(C(=O)N[C@H]2CCC[C@H](OC3CCCC3)[C@@H](OC(=O)C3CC3)[C@H](C)OC2=O)c1O` [F142], for which the pest or weed control at 100 ppm fell in the range of 0 to 80% in experiment [1] (setting [3]), 80 to 100% in experiment [1] (setting [4]), 80 to 100% in experiment [2] (setting [5]) and 80 to 100% in experiment [2] (setting [6]).

Regarding `CCCO[C@H]1CCC[C@H](NC(=O)c2nccc(OC)c2OC(C)=O)C(=O)O[C@@H](C)[C@@H]1Oc1cccc(F)c1` [F275], the pest or weed control at 100 ppm in experiment [1] (setting [7]), in experiment [1] (setting [9]), in experiment [2] (setting [11]) and in experiment [2] (setting [13]) was 80 to 100% in each case. Besides, the pest or weed control at 121.5 g/ha in experiment [1] (setting [8]), in experiment [1] (setting [10]), in experiment [2] (setting [12]) and in experiment [2] (setting [14]) was 80 to 100% each time.

`COc1ccnc(C(=O)N[C@H]2CCC[C@H](OC(=O)C3CCCC3)[C@@H](OC3CCCC3)[C@H](C)OC2=O)c1O` [F156]: the pest or weed control at 100 ppm in experiment [1] (setting [3]), in experiment [1] (setting [4]), in experiment [2] (setting [5]) and in experiment [2] (setting [6]) was 80 to 100% throughout.

For the compound `CCCO[C@H]1[C@H](C)OC(=O)[C@@H](NC(=O)c2nccc(OC)c2O)CCC[C@@H]1Oc1cc(C)cc(C)c1` [F281], the pest or weed control at 100 ppm fell in the range of 0 to 80% in experiment [1] (setting [7]), 0 to 80% in experiment [1] (setting [9]), 80 to 100% in experiment [2] (setting [11]) and 0 to 80% in experiment [2] (setting [13]).

For `CCCO[C@H]1CCC[C@H](NC(=O)c2nccc(OC)c2OC(C)=O)C(=O)O[C@@H](C)[C@@H]1Oc1ccc(F)cc1` [F266], the pest or weed control at 121.5 g/ha in experiment [1] (setting [8]), in experiment [2] (setting [12]) and in experiment [2] (setting [14]) was 80 to 100% each time.

As for `COc1ccnc(C(=O)N[C@H]2CCC[C@H](OCCCc3ccccc3)[C@@H](OCC(C)C)[C@H](C)OC2=O)c1OCOC(C)=O` [F222], the pest or weed control at 100 ppm in experiment [1] (setting [3]), in experiment [1] (setting [4]), in experiment [2] (setting [5]) and in experiment [2] (setting [6]) was 80 to 100% in each case.

Regarding `COc1ccnc(C(=O)N[C@H]2CCC[C@H](OC(=O)C3CCCC3)[C@@H](OC3CCCC3)[C@H](C)OC2=O)c1OC(C)=O` [F159], the pest or weed control at 100 ppm in experiment [1] (setting [3]), in experiment [1] (setting [4]), in experiment [2] (setting [5]) and in experiment [2] (setting [6]) was 80 to 100% throughout.

As to `COCCC(=O)Oc1c(OC)ccnc1C(=O)N[C@H]1CCC[C@H](Oc2ccccc2)[C@@H](OC)[C@H](C)OC1=O` [F260], the pest or weed control at 121.5 g/ha in experiment [1] (setting [8]) lay in the range of 0 to 80%; in experiment [1] (setting [10]), 80 to 100%; in experiment [2] (setting [12]), 80 to 100%; in experiment [2] (setting [14]), 80 to 100%.

On to `COc1ccnc(C(=O)N[C@H]2CCC[C@H](OCC(C)C)[C@@H](OC/C=C/C(F)(F)F)[C@H](C)OC2=O)c1O` [F53], for which the pest or weed control at 100 ppm is 80 to 100% in experiment [1] (setting [3]), 0 to 80% in experiment [1] (setting [4]), 80 to 100% in experiment [2] (setting [5]) and 80 to 100% in experiment [2] (setting [6]).

For “[2-[[(3S,7S,8S,9S)-7-(cyclopentoxy)-9-methyl-2-oxo-8-propoxy-oxonan-3-yl]carbamoyl]-4-methoxy-3-pyridyl]3-methoxypropanoate [F19]”, the “SEPTTR 1DP disease control” value in experiment [1] (setting [15]) was “A (80-100)”. For the same compound, the “SEPTTR 3DC disease control” value in experiment [1] (setting [16]) is recorded as “A (80-100)”. In addition, the “PUCCRT 1DP disease control” value in experiment [2] (setting [15]) is listed as “A (80-100)”. Moreover, the “PUCCRT 3DC disease control” value in experiment [2] (setting [16]) is given as “A (80-100)”.

For the compound `COc1ccnc(C(=O)N[C@H]2CCC[C@H](Oc3ccccc3)[C@@H](OC(=O)C3CCCC3)[C@H](C)OC2=O)c1O` [F232], the pest or weed control at 100 ppm fell in the range of 80 to 100% in experiment [1] (setting [7]), 0 to 80% in experiment [1] (setting [9]), 80 to 100% in experiment [2] (setting [11]) and 80 to 100% in experiment [2] (setting [13]).

In the case of `CCc1ccnc(C(=O)N[C@H]2CCC[C@H](OCC(C)C)[C@@H](OCCC(C)OC)[C@H](C)OC2=O)c1O` (stereo partly drawn) [F71], the pest or weed control at 100 ppm is 0 to 80% in experiment [1] (setting [3]), 0 to 80% in experiment [1] (setting [4]), 0 to 80% in experiment [2] (setting [5]) and 80 to 100% in experiment [2] (setting [6]).

With `COc1ccnc(C(=O)N[C@H]2CCC[C@H](OCCCc3ccccc3)[C@@H](OCC(C)C)[C@H](C)OC2=O)c1O` [F219], the pest or weed control at 100 ppm in experiment [1] (setting [3]) was in the range of 80 to 100%; in experiment [1] (setting [4]) it was 0 to 80%; in experiment [2] (setting [5]) it was 80 to 100%; in experiment [2] (setting [6]), 80 to 100%.

For the compound `CCCCCO[C@H]1[C@H](C)OC(=O)[C@@H](NC(=O)c2nccc(OC)c2O)CCC[C@@H]1OC1CCCC1` [F164], the pest or weed control at 100 ppm in experiment [1] (setting [3]), in experiment [1] (setting [4]), in experiment [2] (setting [5]) and in experiment [2] (setting [6]) was 80 to 100% in each case.
